From patent US20250177362A1, “HETEROCYCLIC GLP-1 AGONISTS” (Gasherbrum Bio, Inc., priority 2022, published 2025) come the findings set out here.

For orientation: EC50 means the concentration giving half of the maximal effect. Low readings indicate an effect from little substance, high ones a need for much substance.

For this test, the target named is T1, GLP-1 Receptor (Homo sapiens, UniProt P43220).
T1 construct: host or cells: HEK293/CRE-Luc (HEK293/GLPIR/CRE-LUC)
T1 sequence (P43220 24-463, species assumed): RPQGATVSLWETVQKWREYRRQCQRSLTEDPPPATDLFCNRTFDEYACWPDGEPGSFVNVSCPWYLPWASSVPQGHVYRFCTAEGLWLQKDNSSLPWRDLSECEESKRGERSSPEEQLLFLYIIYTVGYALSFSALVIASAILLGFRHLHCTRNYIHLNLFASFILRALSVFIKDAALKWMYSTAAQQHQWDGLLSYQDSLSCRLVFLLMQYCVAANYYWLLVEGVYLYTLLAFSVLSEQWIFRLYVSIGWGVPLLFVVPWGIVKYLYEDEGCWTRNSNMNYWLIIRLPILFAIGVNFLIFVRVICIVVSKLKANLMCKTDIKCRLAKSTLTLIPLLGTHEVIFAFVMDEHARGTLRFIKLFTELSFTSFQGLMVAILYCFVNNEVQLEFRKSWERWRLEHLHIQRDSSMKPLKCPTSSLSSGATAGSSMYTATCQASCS
Nature of the test: GLP-1R agonist cAMP stimulation assay. Type of test: cell-based. The conditions noted are these: HEK293/CRE-Luc cell line stably expressing the GLP-1 Receptor; 30 min incubation; cAMP dynamic 2 Kit (Cisbio). The protocol:
Activation of GLP-1 receptor is known to stimulate cyclic AMP (cAMP) production in cells which indicates primary coupling to the Gas subunit of the G protein heterotrimeric complex.
To optimize functional activity directed toward Gas coupling, a HEK293/CRE-Luc cell line developed by HDB stably expressing the GLP-1 Receptor was used. 200× concentration of compound working solutions were prepared (Agilent Technologies Bravo) with ½ log serial dilution in 384-well Echo LDV plate (Labcyte, Cat #LP-0200). 50 nL/well 200× concentration of compound working solutions were moved to 384-well white low volume plate (Greiner, Cat #784075) using Labcyte ECHO550. 1×10^5 cells/mL HEK293/GLPIR/CRE-LUC (HD Biosciences) cell suspensions prepared with assay buffer [DPBS containing 0.5 mM IBMX (Sigma, Cat #15879) and 0.10% BSA (GENVIEW, Cat #FA016-100g)], 10 μL cell suspensions were added to each well of previous generated assay plate which already contains 50 nL compound at 200× concentration using ThermoFisher Multidrop Combi (1000 cells/well). Seal the plate and incubate at 37° C. with 5% CO2 for 30 min.
After incubation the cAMP assay signal was generated using cAMP dynamic 2 Kit (Cisbio). 5 μL cAMP-d2 working solution was added to each well, followed with 5 μL Anti-cAMP antibody-cryptate working solution added to each well using ThermoFisher Multidrop Combi. Incubate at room temperature for 1 hour protected from light. Read the fluorescence at 665 and 615 nm with Reader PerkinElmer EnVision.
For `COCCNc1cc(-c2nnc(C(F)(F)F)[nH]2)cnc1CN1CCC(c2cccc3c2O[C@@](C)(c2ccc(Cl)cc2F)O3)CC1` [F-4, 2-({4-[(2S)-2-(4-chloro-2-fluorophenyl)-2-methyl-2H-1,3-benzodioxol-4-yl]piperidin-1-yl}methyl)-N-(2-methoxyethyl)-5-[5-(trifluoromethyl)-4H-1,2,4-triazol-3-yl]pyridin-3-amine], the half-maximal effective concentration (EC50) was in the range of 1 to 100 nM.
On to `CC1(c2ccc(Cl)cc2F)Oc2cccc(C3CCN(Cc4ncc(-c5nnn[nH]5)cc4C4CC4)CC3)c2O1` (centres unmarked) [F-14, 2-((4-(2-(4-chloro-2-fluorophenyl)-2-methylbenzo[d][1,3]dioxol-4-yl)piperidin-1-yl)methyl)-3-cyclopropyl-5-(1H-tetrazol-5-yl)pyridine], for which the EC50 was 1 to 100 nM.
`C[C@]1(c2ccc(Cl)cc2F)Oc2cccc(C3CCN(Cc4ncc(-c5nnc(C(F)(F)F)[nH]5)cc4NC4CCCC4)CC3)c2O1` [F-11, (S)-2-((4-(2-(4-chloro-2-fluorophenyl)-2-methylbenzo[d][1,3]dioxol-4-yl)piperidin-1-yl)methyl)-N-cyclopentyl-5-(5-(trifluoromethyl)-4H-1,2,4-triazol-3-yl)pyridin-3-amine] displayed an EC50 of 1 to 100 nM.
In the case of `N#CC1(Cc2cc(-c3nc(C(F)(F)F)n[nH]3)cnc2CN2CCC(c3ccc4cnn(Cc5ccc(Cl)cc5F)c4n3)CC2)CC1` [C-1] it was under 1 nM.
Compound `C[C@]1(c2ccc(Cl)cc2F)Oc2cccc(C3CCN(Cc4ncc(-c5nnc(C(F)(F)F)[nH]5)cc4CS(=O)(=O)C4CC4)CC3)c2O1` [F-16] had an EC50 of 1 to 100 nM.
As for `Cc1cc(-c2ccncc2)cnc1CN1CCC(c2cccc3c2OC(C)(c2ccc(Cl)cc2F)O3)CC1` (centres unmarked) [E-14], the figure is over 100 nM; as for `CC1COCCN1c1cc(-c2nnc(C(F)(F)F)[nH]2)nnc1CN1CCC(c2cccc3c2O[C@@](C)(c2ccc(Cl)cc2F)O3)CC1` (stereo partly drawn) [F-3, 4-[3-({4-[(2S)-2-(4-chloro-2-fluorophenyl)-2-methyl-2H-1,3-benzodioxol-4-yl]piperidin-1-yl}methyl)-6-[5-(trifluoromethyl)-4H-1,2,4-triazol-3-yl]pyridazin-4-yl]-3-methylmorpholine], 1 to 100 nM; as for `C[C@]1(c2ccc(Cl)cc2F)Oc2cccc(C3CCN(Cc4ncc(-c5nnc(C(F)(F)F)[nH]5)cc4N4CCOC4=O)CC3)c2O1` [F-2, 3-[2-({4-[(2S)-2-(4-chloro-2-fluorophenyl)-2-methyl-2H-1,3-benzodioxol-4-yl]piperidin-1-yl}methyl)-5-[5-(trifluoromethyl)-4H-1,2,4-triazol-3-yl]pyridin-3-yl]-1,3-oxazolidin-2-one], 1 to 100 nM.
